Target: T1, full-length beta-Catenin (Uniprot ID P35222) (Homo sapiens, UniProt P35222)
T1 construct: 10 nM full-length beta-Catenin (Uniprot ID P35222)
T1 sequence (P35222 1-781): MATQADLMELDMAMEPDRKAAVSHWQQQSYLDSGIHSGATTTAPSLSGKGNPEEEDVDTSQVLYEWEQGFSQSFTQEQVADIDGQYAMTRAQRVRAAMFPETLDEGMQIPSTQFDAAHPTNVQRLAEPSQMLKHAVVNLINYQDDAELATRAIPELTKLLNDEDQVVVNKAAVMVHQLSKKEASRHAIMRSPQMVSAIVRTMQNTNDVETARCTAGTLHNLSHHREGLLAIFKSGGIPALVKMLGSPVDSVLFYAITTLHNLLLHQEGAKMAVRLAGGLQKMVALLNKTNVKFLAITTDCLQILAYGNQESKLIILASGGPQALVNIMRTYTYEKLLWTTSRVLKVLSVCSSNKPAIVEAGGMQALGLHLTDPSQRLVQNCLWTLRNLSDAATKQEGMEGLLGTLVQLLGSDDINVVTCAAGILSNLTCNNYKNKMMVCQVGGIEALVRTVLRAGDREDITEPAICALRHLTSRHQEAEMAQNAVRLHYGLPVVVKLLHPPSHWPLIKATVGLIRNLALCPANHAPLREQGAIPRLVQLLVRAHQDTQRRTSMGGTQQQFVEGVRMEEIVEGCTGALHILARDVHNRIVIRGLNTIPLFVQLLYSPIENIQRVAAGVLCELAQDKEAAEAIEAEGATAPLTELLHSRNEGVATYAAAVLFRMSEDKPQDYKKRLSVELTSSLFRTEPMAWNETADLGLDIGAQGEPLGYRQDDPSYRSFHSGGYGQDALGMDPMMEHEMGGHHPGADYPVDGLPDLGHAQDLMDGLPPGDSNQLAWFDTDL
Test: Fluorescence polarization IC50 (beta-catenin / 5FAM-TCF4 10-53 competition)
Type: binding
Details: fluorescence polarization; read-out: beta-Catenin FP IC50

Structure (SMILES) | IC50 [nM]
COc1cccc(C[C@@H]2NC(=O)[C@H](C)NC(=O)[C@H](CCCCNC(C)C)NC(=O)[C@H](CCC(N)=O)NC(=O)[C@H](CC(=O)O)NC(=O)C3(CCCC=CCCCOC(=O)N4CC[C@@](C(=O)N[C@@H](Cc5ccccc5)C(=O)N[C@@H](Cc5csc6ccccc56)C(=O)N[C@@H](CCO)C(N)=O)(C4)NC(=O)[C@H](CC(N)=O)NC2=O)CCCC=CC[C@]2(CCCN2C(C)=O)C(=O)N[C@@H](CC(N)=O)C(=O)N[C@@H](CC2CCCCC2)C(=O)N3)c1 (stereo partly drawn) [I-1926, Ac-PL3-Asn-Cha-B5-Asp-Gln-iPrLys-Ala-3OMeF-Asn-PyrS2-Phe-BztA-Hse-NH2] | 417
CC(=O)N1CCC[C@]12CC=CCCC1(CCC=CCCCOC(=O)N3CC[C@@](C(=O)N[C@@H](Cc4ccsc4)C(=O)N[C@@H](Cc4csc5ccccc45)C(=O)N[C@@H](CCC(N)=O)C(N)=O)(C3)NC(=O)[C@H](CC(C)C)NC(=O)[C@H](Cc3ccccc3)NC(=O)[C@H](C)NC(=O)[C@H](C)NC(=O)[C@H](CC(=O)O)NC(=O)[C@H](CC(=O)O)NC1=O)NC(=O)[C@H](CC(C)(C)C)NC(=O)[C@H](CC(=O)O)NC2=O (stereo partly drawn) [I-1971, Ac-PL3-Asp-Npg-B4-Asp-Asp-Ala-Ala-Phe-Leu-PyrS2-3Thi-BztA-Gln-NH2] | 475
CC(=O)N1CCC[C@]12CC=CCCCC1(CCCC=CCCCOC(=O)N3CC[C@@](C(=O)N[C@@H](Cc4ccccc4)C(=O)N[C@@H](Cc4csc5ccccc45)C(=O)N[C@@H](CC(=O)N4CCOCC4)C(N)=O)(C3)NC(=O)[C@H](CC(C)C)NC(=O)[C@H](Cc3ccccc3)NC(=O)[C@H](C)NC(=O)[C@H](CCO)NC(=O)[C@H](CCC(N)=O)NC(=O)[C@H](CC(=O)O)NC1=O)NC(=O)[C@H](CC1CCCCC1)NC(=O)[C@H](CC(N)=O)NC2=O (stereo partly drawn) [I-2498, Ac-PL3-Asn-Cha-B5-Asp-Gln-Hse-Ala-Phe-Leu-PyrS2-Phe-BztA-MorphAsn-NH2] | 449
CC(=O)N1CCC[C@]12CC=CCCCC1(CCCC=CCCCOC(=O)N3CC[C@@](C(=O)N[C@@H](Cc4ccccc4)C(=O)N[C@@H](Cc4csc5ccccc45)C(=O)N[C@@H](CCC(N)=O)C(N)=O)(C3)NC(=O)[C@H](CC(C)C)NC(=O)[C@H](CC3CCCCC3)NC(=O)[C@H](C)NC(=O)[C@H](CCCCNC(C)C)NC(=O)[C@H](CCC(N)=O)NC(=O)[C@H](CC(=O)O)NC1=O)NC(=O)[C@H](CC(C)(C)C)NC(=O)[C@H](CC(N)=O)NC2=O (stereo partly drawn) [I-1649, Ac-PL3-Asn-Npg-B5-Asp-Gln-iPrLys-Ala-Cha-Leu-PyrS2-Phe-BztA-Gln-NH2] | 2480
CC(=O)N1CCC[C@]12CC=CCCCC1(CCCC=CCCCOC(=O)N3CC[C@@](C(=O)N[C@@H](Cc4ccsc4)C(=O)N[C@@H](Cc4csc5ccccc45)C(=O)N[C@@H](CCC(N)=O)C(N)=O)(C3)NC(=O)[C@H](CC(C)C)NC(=O)[C@H](Cc3ccccc3)NC(=O)[C@H](C)NC(=O)[C@H](C)NC(=O)[C@H](CC(=O)O)NC(=O)[C@H](CC(=O)OCCSSc3ccccn3)NC1=O)NC(=O)[C@H](CC(C)(C)C)NC(=O)[C@H](CC(=O)O)NC2=O (stereo partly drawn) [I-1950, Ac-PL3-Asp-Npg-B5-[EtSSpy]AspE-Asp-Ala-Ala-Phe-Leu-PyrS2-3Thi-BztA-Gln-NH2] | 234
CC(=O)N1CCC[C@]12CC=CCCCC1(CCCC=CCCCCCC[C@@](C)(C(=O)N[C@@H](Cc3ccsc3)C(=O)N[C@@H](Cc3csc4ccccc34)C(=O)N[C@@H](CCC(N)=O)C(N)=O)NC(=O)[C@H](CC(N)=O)NC(=O)[C@H](Cc3ccccc3)NC(=O)[C@H](C)NC(=O)[C@H](C)NC(=O)[C@H]([C@@H](C)O)NC(=O)[C@H](CC(N)=O)NC1=O)NC(=O)[C@H](CC(C)(C)C)NC(=O)[C@H](CC(=O)O)NC2=O (stereo partly drawn) [I-1617, Ac-PL3-Asp-Npg-B5-Asn-Thr-Ala-Ala-Phe-Asn-S8-3Thi-BztA-Gln-NH2] | 759
CC(=O)N1CCC[C@]12CC=CCCCCC1(CCCCC=CCCCOC(=O)N3CC[C@@](C(=O)N[C@@H](Cc4ccccc4C(F)(F)F)C(=O)N[C@@H](Cc4csc5ccccc45)C(=O)N[C@@H](CCC(N)=O)C(N)=O)(C3)NC(=O)[C@H](CC(C)C)NC(=O)[C@H](Cc3ccccc3)NC(=O)[C@H](C)NC(=O)[C@H](C)NC(=O)[C@H](Cc3cccc(C(=O)O)c3)NC(=O)[C@H](CC(=O)O)NC1=O)NC(=O)[C@H](CC(C)(C)C)NC(=O)[C@H](CC(=O)O)NC2=O (stereo partly drawn) [I-2512, Ac-PL3-Asp-Npg-B6-Asp-3COOHF-Ala-Ala-Phe-Leu-PyrS2-2F3MeF-BztA-Gln-NH2] | 245
CC(=O)N1CCC[C@]12CC=CCCCC1(CCCC=CCCCOC(=O)N3CC[C@@](C(=O)N[C@@H](Cc4ccccc4Cl)C(=O)N[C@@H](Cc4csc5ccccc45)C(=O)N[C@@H](CO)C(=O)N[C@@H](C)CO)(C3)NC(=O)[C@H](CC(C)C)NC(=O)[C@H](Cc3ccccc3)NC(=O)[C@H](C)NC(=O)[C@H](C)NC(=O)[C@H](Cc3cccc(C(=O)O)c3)NC(=O)[C@H](CC(=O)O)NC1=O)NC(=O)[C@H](CC(C)(C)C)NC(=O)[C@H](CC(=O)O)NC2=O (stereo partly drawn) [I-1907, Ac-PL3-Asp-Npg-B5-Asp-3COOHF-Ala-Ala-Phe-Leu-PyrS2-2C1F-BztA-Ser-Alao1] | 23
CC(=O)N1CCC[C@H]1C(=O)N[C@@H](CC(=O)O)C(=O)N[C@@H](CC(C)(C)C)C(=O)N[C@]1(C)CCCCCCCOC(=O)N2CC[C@@](C(=O)N[C@@H](Cc3ccsc3)C(=O)N[C@@H](Cc3csc4ccccc34)C(=O)N[C@@H](CCC(N)=O)C(N)=O)(C2)NC(=O)[C@H](CC(C)C)NC(=O)[C@H](Cc2ccccc2)NC(=O)[C@H](C)NC(=O)[C@H](C)NC(=O)[C@H](CC(=O)O)NC(=O)[C@H](CC(=O)O)NC1=O [I-1992, Ac-Pro-Asp-Npg-R4-Asp-Asp-Ala-Ala-Phe-Leu-PyrS2-3Thi-BztA-Gln-NH2] | 536
CC(=O)N1CCC[C@]12CC=CCCCC1(CCCC=CCCCOC(=O)N3CC[C@@](C(=O)N[C@@H](Cc4ccccc4)C(=O)N[C@@H](Cc4csc5ccccc45)C(=O)N[C@@H](CCC(N)=O)C(N)=O)(C3)NC(=O)[C@H](Cc3ccccc3)NC(=O)[C@H](Cc3ccccc3)NC(=O)[C@H](C)NC(=O)[C@H](CCCCNC(C)C)NC(=O)[C@H]([C@@H](C)O)NC(=O)[C@H](CC(=O)O)NC1=O)NC(=O)[C@H](CC(C)(C)C)NC(=O)[C@H](CC(N)=O)NC2=O (stereo partly drawn) [I-1599, Ac-PL3-Asn-Npg-B5-Asp-Thr-iPrLys-Ala-Phe-Phe-PyrS2-Phe-BztA-Gln-NH2] | 1080
CC(=O)N1CCC[C@]12CC=CCCCC1(CCCC=CCCCOC(=O)N3CC[C@@](C(=O)N[C@@H](Cc4ccsc4)C(=O)N[C@@H](Cc4c[nH]c5ncccc45)C(=O)N[C@@H](CCC(N)=O)C(N)=O)(C3)NC(=O)[C@H](CC(C)C)NC(=O)[C@H](Cc3ccccc3)NC(=O)[C@H](C)NC(=O)[C@H](C)NC(=O)[C@H](CC(=O)O)NC(=O)[C@H](CC(=O)O)NC1=O)NC(=O)[C@H](CC(C)(C)C)NC(=O)[C@H](CC(=O)O)NC2=O (stereo partly drawn) [I-2181, Ac-PL3-Asp-Npg-B5-Asp-Asp-Ala-Ala-Phe-Leu-PyrS2-3Thi-7AzaW-Gln-NH2] | 2880
CC(=O)N1CCC[C@]12CC=CCCCC1(CCCC=CCCCOC(=O)N3CCC(C(=O)N[C@@H](Cc4ccccc4C(F)(F)F)C(=O)N[C@@H](Cc4csc5ccccc45)C(=O)N[C@@H](C)C(N)=O)(CC3)NC(=O)[C@H](CC(C)C)NC(=O)[C@H](Cc3ccccc3)NC(=O)[C@H](C)NC(=O)[C@H](CCC(N)=O)NC(=O)[C@H](Cc3cccc(C(=O)O)c3)NC(=O)[C@H](CC(=O)O)NC1=O)NC(=O)[C@H](CC(C)(C)C)NC(=O)[C@H](CC(=O)O)NC2=O (stereo partly drawn) [I-2586, Ac-PL3-Asp-Npg-B5-Asp-3COOHF-Gln-Ala-Phe-Leu-SPip2-2F3MeF-BztA-Ala-NH2] | 345
CC(=O)N1CCC[C@]12CC=CCCCC1(CCCC=CCCCOC(=O)N3CC[C@@](C(=O)N[C@@H](Cc4ccsc4)C(=O)N[C@@H](Cc4csc5ccccc45)C(=O)N[C@@H](CCC(N)=O)C(=O)N[C@@H](C)CO)(C3)NC(=O)[C@H](CC(C)C)NC(=O)[C@H](Cc3ccccc3)NC(=O)[C@H](C)NC(=O)[C@H](C)NC(=O)[C@H](CN(CC(=O)O)CC(F)(F)F)NC(=O)[C@H](CC(=O)O)NC1=O)NC(=O)[C@H](CC(C)(C)C)NC(=O)[C@H](CC(=O)O)NC2=O (stereo partly drawn) [I-1679, Ac-PL3-Asp-Npg-B5-Asp-TfeGA-Ala-Ala-Phe-Leu-PyrS2-3Thi-BztA-Gln-Alao1] | 17.5
CCCCOC(=O)N1CCC[C@]12CC=CCCCC1(CCCC=CCCCOC(=O)N3CC[C@@](C(=O)N[C@@H](Cc4ccsc4)C(=O)N[C@@H](Cc4csc5ccccc45)C(=O)N[C@@H](Cc4c[nH]cn4)C(N)=O)(C3)NC(=O)[C@H](CCC(N)=O)NC(=O)[C@H](Cc3ccccc3)NC(=O)[C@H](C)NC(=O)[C@H](C)NC(=O)[C@H](CC(=O)O)NC(=O)[C@H](CC(=O)O)NC1=O)NC(=O)[C@H](CC(C)(C)C)NC(=O)[C@H](CC(=O)O)NC2=O (stereo partly drawn) [I-2363, CO2Bu-PL3-Asp-Npg-B5-Asp-Asp-Ala-Ala-Phe-Gln-PyrS2-3Thi-BztA-His-NH2] | 44

— patent publication US20240116985A1, “STAPLED PEPTIDES AND METHODS THEREOF” (priority 2020, published 2024)
